Laboratory results taken from paper PMC8509398, “Proteolytic Cleavage of Bioactive Peptides and Protease-Activated Receptors in Acute and Post-Colitis” (International Journal of Molecular Sciences, 2021).
Residues, ends and D or L forms follow the SMILES beside them.

What was measured:
[1] = target: tryptase (Homo sapiens, UniProt Q15661); experiment: Cleavage of peptides by purified tryptase, MALDI-TOF/TOF; settings: 25 nM protease, 10 µM peptide; for Efficiency of the first cleavage in the peptide, Tryptase / TL disarming (D), Tryptase / TL unmasking (U), Tryptase: 37 °C, 2, 5, 10 and 30 min; for Efficiency of the first cleavage in the peptide, Tryptase: stopped with 2% TFA; for Incubation time at which the first cleavage or decrease of the full-length peptide was observed, tryptase: 37 °C, time points 2, 5, 10, 30 min; for TL disarming (D), Tryptase / TL unmasking (U), Tryptase: PAR-based peptides
tryptase, sequence (Q15661 31-275): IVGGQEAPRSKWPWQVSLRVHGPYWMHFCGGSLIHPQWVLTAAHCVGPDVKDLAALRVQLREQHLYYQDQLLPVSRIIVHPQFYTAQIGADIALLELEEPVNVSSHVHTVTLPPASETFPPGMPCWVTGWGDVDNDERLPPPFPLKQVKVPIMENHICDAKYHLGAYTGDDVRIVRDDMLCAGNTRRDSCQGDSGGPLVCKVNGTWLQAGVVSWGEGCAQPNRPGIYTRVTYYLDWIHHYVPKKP
Source text: Trypsin-like proteases included in the experiments are trypsin-1, -2 and -3, tryptase (Enzo LifeSciences), thrombin (Sigma-Aldrich) and cathepsin G (Sigma-Aldrich). Trypsin-1, -2 and -3 were produced as described by Koistinen et al. and Wu et al.. Two elastase-like enzymes, neutrophil elastase (Enzo LifeSciences, Farmingdale, NY, USA) and pancreatic elastase I (Sigma-Aldrich) were included as well. All enzymes were from human origin except for pancreatic elastase from porcine pancreas.
Reaction mixtures with purified enzymes were compiled in an identical way. Each mixture contained an equimolar concentration of protease (25 nM based on) and 10 µM peptide of interest and was incubated for 2, 5, 10 and 30 min at 37 °C. Substance P was added as the standard peptide except for the reaction mixtures with substance P or bradykinin as the peptide of interest, where angiotensin II (Bachem) was added.
(§1) The TFA mixtures were thawed on ice and desalted using C18 zip-tips (Merck Millipore®, Burlington, MA, USA) with a capacity of 5 µg protein. Retained peptide fragments were eluted directly on the MALDI target plate. Next, 0.5 µL of a 2.5 mg/mL α-cyano-4-hydroxycinnamic acid (Sigma-Aldrich) matrix solution (in 70% acetonitrile, 0.1% TFA) was spotted on top of the sample. A 6-Peptide mixture Kit (AB Sciex, Framingham, MA, USA) containing bradykinin (2–9), angiotensin I, glu1-fibrinopeptide, ACTH (1–17), ACTH (18–39) and ACTH (7–38) was diluted with matrix and spotted on the plate as well.
MS and MS/MS data for peptide fragment identification were obtained with a MALDI-TOF/TOF instrument (4800 MALDI TOF/TOF™, Applied Biosystems, Waltham, MA, USA) and instrument parameters were set using 4000 Series Explorer™ software. MS spectra were recorded in positive reflector mode in a mass range from 500 to 4000 Da and laser intensity of 4500–4800 Hz. The spectra were calibrated using the calibration mixture mentioned above to a mass tolerance of 0.1 Da. MS/MS spectra were recorded with high-energy collision-induced dissociation and the laser intensity was increased by 10%. Precursor mass m/z 1570.65 (Glu1-Fibrinopeptide from the calibration mixture) was used to calibrate the MS/MS spectra to a mass tolerance of 0.1 Da.
MS and MS/MS spectra were processed using DataExplorer™ software and the obtained output files were uploaded in the MS-PEP data analyzer (https://bioit.shinyapps.io/PARs/ accessed 10/08/2020) for peptide fragment identification. Identified fragments were confirmed using the MS/MS spectra and mMass 5.5.0 by Martin Strohalm. The relative intensities of the fragments were calculated as the ratio of the intensity of the peak of interest to the intensity of the peak of the standard peptide.

[2] = Cleavage of peptides by colonic tissue lysates from TNBS-induced colitis rat model, MALDI-TOF/TOF; settings: 10 µM peptide, 20 µg/mL protein, 37 °C; for Processing by colonic samples, in words (comparison of control, post-colitis and acute colitis): rat colonic lysates, up to 30 min, n = 8 per group
Protocol: Adult male Sprague–Dawley rats (200–225 g; Charles River, Wilmington, MA, USA) were used in a previously described TNBS-induced acute and post-inflammatory model. Rats were housed at constant room temperature (22 ± 2 °C) and humidity (60%) with two rats per cage, unlimited access to water and food and on a 12 h–12 h light/dark cycle.
After an overnight fast, TNBS colitis was induced using a TNBS-enema (4 mg TNBS; Sigma-Aldrich, 50% ethanol) as described previously. Rats were anesthetized with a mixture of ketamine (35 mg/kg i.p.; Ketalar®, Pfizer, New York City, NY, USA) and xylazine (5 mg/kg i.p.; Rompun®, Bayer, Leverkusen, Germany), and the TNBS-enema or 0.9% saline was administered intrarectally using a flexible catheter (18 G, length 4.5 cm) to colitis and control rats, respectively. Animals were kept in a tail-up position for 1 min and were then allowed to recover in their cages with free access to water and food. […] For the post-colitis group (n = 8), a colonoscopy was performed starting from day 10 and repeated every 4 days until complete mucosal healing was observed. The rats were then sacrificed as well and colonic samples were taken.
Colonic lysates were prepared for studying their effects on cleavage patterns of added peptides with a MALDI-TOF/TOF assay. After sacrifice, a sample of approximately 50 mg of distal colon was taken from each rat. The colonic samples were immediately rinsed with Krebs solution, snap-frozen and stored at −80 °C until further processing. Sample preparation started with crushing the colonic samples on dry ice. Liquid nitrogen was used to prevent the loss of enzymatic activity due to temperature increases and the colon powders were stored at −80 °C for further experiments. […] After centrifugation, the supernatants were collected and used immediately to prepare the reaction mixtures, measure proteolytic activities with fluorogenic substrates and determine the protein content with a Bradford assay.
Colonic lysate was added to a peptide of interest to obtain the reaction mixtures with the colonic samples. Lysate and peptide were diluted so each mixture contained 10 µM peptide of interest and 20 µg/mL protein originating from the colonic tissue. These peptide and protein concentrations were based on research from Loew et al. and O’ Donoghue et al.. The mixtures were incubated at 37 °C for several incubation periods between 5 and 30 min. Afterward, the fragmentation reaction was stopped by adding trifluoroacetic acid (TFA; Alfa Aesar™, ThermoFisher, Waltham, MA, USA) to a final concentration of 2% and standard peptide (substance P, bradykinin or PAR3-based peptide) was added in a final concentration of 10 µM. Standard peptides were selected based on the mass of the peptides of interest. For each sample/peptide combination, a starting point was included as well. Here, TFA was added immediately after mixing the reaction constituents. Samples were stored at −80 °C for further MALDI-TOF/TOF experiments.
as §1
MS and MS/MS data for peptide fragment identification were obtained with a MALDI-TOF/TOF instrument (4800 MALDI TOF/TOF™, Applied Biosystems, Waltham, MA, USA) and instrument parameters were set using 4000 Series Explorer™ software. MS spectra were recorded in positive reflector mode in a mass range from 500 to 4000 Da and laser intensity of 4500–4800 Hz.

[3] = rat colonic lysate, 5-30 min, stopped with 2% TFA, MALDI-TOF/TOF relative intensity vs standard peptide, n = 8 animals

Row | TL disarming (D), Tryptase [1] | TL unmasking (U), Tryptase [1] | Number of colonic samples in which the TL-sequence unmasking cleavage was observed, acute colitis ([2]; acute colitis lysates, n = 8, MALDI-TOF/TOF, PAR1-based after 30 min) | Number of colonic samples in which the TL-sequence unmasking cleavage was observed, post-colitis ([2]; post-colitis lysates, n = 8, MALDI-TOF/TOF, PAR1-based after 30 min) | Incubation time after which processing was significant (decrease of full-length peptide or increase of fragment), acute colitis samples ([2]; rat colonic lysate, acute TNBS colitis, 5-30 min, stopped with 2% TFA, MALDI-TOF/TOF relative intensity vs standard peptide, n = 8 animals) [min] | SMILES | Efficiency of the first cleavage in the peptide, Tryptase [1] | Incubation time at which the first cleavage or decrease of the full-length peptide was observed, tryptase [1] [min] | Processing by colonic samples, in words (comparison of control, post-colitis and acute colitis) ([2]; MALDI-TOF/TOF) | Incubation time after which processing was significant (decrease of full-length peptide or increase of fragment), post-colitis samples [2, 3] | Incubation time after which processing was significant (decrease of full-length peptide or increase of fragment), control samples ([2]; rat colonic lysate, control, 5-30 min, stopped with 2% TFA, MALDI-TOF/TOF relative intensity vs standard peptide, n = 8 animals)
1 |  |  |  |  |  | CC[C@H](C)[C@H](NC(=O)[C@H](CO)NC(=O)[C@H](CC(N)=O)NC(=O)[C@H](CC(C)C)NC(=O)[C@H](Cc1ccc(O)cc1)NC(=O)[C@H](CCCCN)NC(=O)[C@H](CCCCN)NC(=O)[C@@H](NC(=O)[C@H](C)NC(=O)[C@H](CCSC)NC(=O)[C@H](CCC(N)=O)NC(=O)[C@H](CCCCN)NC(=O)[C@H](CCCN=C(N)N)NC(=O)[C@H](CC(C)C)NC(=O)[C@H](CCCN=C(N)N)NC(=O)[C@@H](NC(=O)[C@H](Cc1ccc(O)cc1)NC(=O)[C@H](CC(N)=O)NC(=O)[C@H](CC(=O)O)NC(=O)[C@@H](NC(=O)[C@H](Cc1ccccc1)NC(=O)[C@@H](NC(=O)[C@H](C)NC(=O)[C@H](CC(=O)O)NC(=O)[C@H](CO)NC(=O)[C@@H](N)Cc1c[nH]cn1)C(C)C)[C@@H](C)O)[C@@H](C)O)C(C)C)C(=O)N[C@@H](CC(C)C)C(=O)N[C@@H](CC(N)=O)C(N)=O [VIP, Vasoactive intestinal peptide] | +++ (ultrafast processing within 2 min) | 2 | no differences |  | 
2 | − | − | five out of eight | two out of eight |  | CC[C@H](C)[C@H](NC(=O)[C@H](CO)NC(=O)[C@@H]1CCCN1C(=O)[C@@H](NC(=O)[C@H](CO)NC(=O)[C@H](CC(=O)O)NC(=O)[C@H](CC(=O)O)NC(=O)CNC(=O)CNC(=O)CNC(=O)[C@@H](NC(=O)[C@H](CO)NC(=O)CNC(=O)[C@H](CO)NC(=O)[C@H](CCC(=O)O)NC(=O)[C@H](CC(=O)O)NC(=O)[C@H](Cc1ccc(O)cc1)NC(=O)[C@@H](NC(=O)[C@H](CO)NC(=O)[C@@H]1CCCN1C(=O)[C@@H](NC(=O)[C@H](CCC(N)=O)NC(=O)[C@@H](NC(=O)CNC(=O)CN)[C@@H](C)O)[C@@H](C)O)C(C)C)[C@@H](C)O)[C@@H](C)O)C(=O)N[C@@H](CC(C)C)C(=O)N1CCC[C@H]1C(=O)N[C@@H](C)C(=O)N1CCC[C@H]1C(=O)N[C@@H](CCCNC(=N)N)C(=O)NCC(=O)N[C@@H](Cc1ccc(O)cc1)C(=O)N1CCC[C@H]1C(=O)NCC(=O)N[C@@H](CCC(N)=O)C(=O)N[C@H](C(=O)N[C@@H](CS)C(=O)N[C@@H](C)C(=O)N[C@@H](CC(N)=O)C(=O)N[C@@H](CC(=O)O)C(N)=O)C(C)C [PAR4-based] (H-GGTQTPSVYDESGSTGGGDDSTPSILPAPRGYPGQVCAND-NH2) |  | > 30 |  | not in post-colitis samples | 
3 |  |  |  |  |  | CC[C@H](C)[C@H](NC(=O)[C@H](C)NC(=O)[C@H](CC(N)=O)NC(=O)[C@H](CCCCN)NC(=O)[C@H](Cc1ccccc1)NC(=O)[C@H](CC(C)C)NC(=O)[C@@H](NC(=O)[C@@H](NC(=O)[C@H](CC(C)C)NC(=O)[C@@H]1CCCN1C(=O)[C@@H](NC(=O)[C@H](CCC(N)=O)NC(=O)[C@H](CO)NC(=O)[C@H](CCCCN)NC(=O)[C@H](CCC(=O)O)NC(=O)[C@H](CO)NC(=O)[C@@H](NC(=O)[C@H](CCSC)NC(=O)[C@H](Cc1ccccc1)NC(=O)CNC(=O)CNC(=O)[C@@H](N)Cc1ccc(O)cc1)[C@@H](C)O)[C@@H](C)O)C(C)C)[C@@H](C)O)C(=O)N[C@H](C(=O)N[C@@H](CCCCN)C(=O)N[C@@H](CC(N)=O)C(=O)N[C@@H](C)C(=O)N[C@@H](Cc1ccc(O)cc1)C(=O)N[C@@H](CCCCN)C(=O)N[C@@H](CCCCN)C(=O)NCC(=O)N[C@@H](CCC(=O)O)C(=O)O)[C@@H](C)CC [β-endorphin] | +++ (ultrafast processing within 2 min) | 2 | cleaved more intensively by proteases in acute colitis samples |  | 
4 | +++ (ultrafast processing within 2 min) | − |  |  | 30 | CC[C@H](C)[C@H](NC(=O)[C@@H]1CCCN1C(=O)[C@H](CC(C)C)NC(=O)[C@@H](NC(=O)[C@@H]1CCCN1C(=O)[C@H](CCCCN)NC(=O)[C@H](C)NC(=O)[C@H](CC(C)C)NC(=O)[C@H](CC(N)=O)NC(=O)[C@H](CC(N)=O)NC(=O)[C@@H](NC(=O)[C@H](CC(=O)O)NC(=O)[C@H](CC(N)=O)NC(=O)[C@H](CCC(=O)O)NC(=O)[C@H](CCSC)NC(=O)CN)[C@@H](C)O)[C@@H](C)O)C(=O)N[C@@H](CCCCN)C(=O)N[C@H](C(=O)N[C@@H](Cc1ccccc1)C(=O)N[C@@H](CCCNC(=N)N)C(=O)NCC(=O)N[C@@H](C)C(=O)N1CCC[C@H]1C(=O)N1CCC[C@H]1C(=O)N[C@@H](CC(N)=O)C(=O)N[C@@H](CO)C(=O)N[C@@H](Cc1ccccc1)C(=O)N[C@@H](CCC(=O)O)C(N)=O)[C@@H](C)O [PAR3-based] (H-GMENDTNNLAKPTLPIKTFRGAPPNSFE-NH2) |  |  | cleaved slowly | trend towards an increase of the C-terminal fragment | No C- or N-terminal fragments could be detected
